“Also recorded” adds a separate entry of the source.
Tests used:
Rhodopsin = Rhodopsin mRNA expression (qPCR) in dissociated retinal cell cultures; type: cell-based; details: P5 mouse dissociated retinal cultures, 2 days treatment, vs DMSO and PR1
From the text: In order to identify compounds that may target Nr2e3 a cheminformatic strategy was used to screen hit compounds previously identified to interact with recombinant Nr2e3 in transfected CHO-S cells in a luciferase-based assay (PubChem Assay IDs: 602229, 624378, 624394, and 651849). As a secondary screen for initial hits, dissociated primary retinal cell cultures were used and assayed Rhodopsin, because it is a well-defined target of Nr2e3 signaling and is expressed at high levels exclusively in rod photoreceptors. Retina were dissociated from postnatal day 5 (P5) mice and cultured them in media containing the small molecules. After treatment for 2 days, the cells were collected for qPCR analysis and quantified Rhodopsin expression. […] This finding was confirmed with an immunofluorescence assay to examine Rhodopsin protein expression in dissociated retinal cultures from P5 mice. […]
(§1) RNA from retinas was isolated using TRIzol (Invitrogen) and cDNA was synthesized using the iScript cDNA synthesis kit (Bio-Rad). SSO Fast (Bio-Rad) was used for quantitative real-time PCR. For analysis, values were normalized to Gapdh (ΔCt) and ΔΔCt between DMSO and compound-treated samples was expressed as percent of DMSO treated controls (100*2^ΔΔCt). […]

Rho^P23H mice = experiment: Photoreceptor degeneration in Rho^P23H mice: histology and qPCR at P21; type: in vivo, mouse; details: 10 mg/kg i.p. from P12-P14 until P21, vs DMSO vehicle
Procedure: FIG. 3A illustrates the timeline of photoreceptor degeneration in the Rhodopsin^P23H mouse and experimental design.
To determine whether photoreceptor degeneration can be prevented, Rho^P23H mice were treated with PR3 or vehicle from P12-P14 until P21, during the period of rod photoreceptor death (FIG. 3A). At P21, visual function was assessed with ERGs and euthanized the mice for histological and qPCR analyses. At P21, control Rho^P23H mice had only 2-3 rows of photoreceptors remaining in their ONL (FIGS. 3B and 3C). Rods were sparse and there were few remaining cones (S Opsin+ and Cone Arrestin+ photoreceptors). Control Rho^P23H mice had minimal scotopic and photopic b-wave amplitudes by ERG analysis (FIGS. 4A, 4B, 4D, and 4E). […]
Photoregulin3 was identified by searching previous small molecule screens with SciFinder and PubChem for Nr2e3 interacting molecules. It was initially obtained from ChemDiv and then synthesized and purified in large quantities in the lab after initial screening. […]
as §1

## COc1cc2nc(CN3CC=C(c4ccccc4)CC3)nc(O)c2cc1OC [PR3]
Rhodopsin
  Rhodopsin mRNA expression: robust reduction in Rhodopsin compared to DMSO and PR1 treatment at all concentrations
Rho^P23H mice
  expression of photoreceptor genes in whole retinas (qPCR): greater expression of photoreceptor genes Recoverin, Rhodopsin, and S Opsin; also recorded: more expression of Recoverin and Rhodopsin
  rows of photoreceptors (DAPI+ cells) in the ONL: greater survival of photoreceptors; also recorded: several rows of rod and cone photoreceptors in the ONL

Reference: patent US20200368234A1, “PHOTORECEPTOR GENE MODULATOR PHOTOREGULIN 3 FOR TREATMENT OF RETINAL DISEASE” (University of Washington, priority 2017, published 2020)
